Data: US10752609B2, “GSK-3 inhibitors” (priority 2016, dated 2020)
Like-named read-outs stand apart in the source and are kept apart here.

Key:
[1] = molecular target: GSK3β (Homo sapiens, UniProt P49841); test: GSK3β kinase assay (Caliper LabChip3000 mobility shift, fluoresceinated peptide substrate); format: biochemical
Method: (§1) The kinase assay was performed in V-bottom 384-well plates. […] The reaction was incubated at room temperature for 20 hours and terminated by adding 45 μl of 35 mM EDTA to each sample. The reaction mixture was analyzed on the Caliper LabChip3000 (Caliper, Hopkinton, Mass.) by electrophoretic separation of the unphosphorylated substrate and phosphorylated product. […] Compounds were dissolved at 10 mM in dimethylsulfoxide (DMSO) and evaluated at eleven concentrations. IC50 values were derived by non-linear regression analysis.

[2] = molecular target: GSK3α (Homo sapiens, UniProt P49840); test: GSK3α kinase assay (Caliper LabChip3000 mobility shift, fluoresceinated peptide substrate)
Method: as §1

[3] = tested on: pTau; test: pTau assay (no method described); format: cell-based
[4] = 250 pM enzyme, 20 uM ATP, 1.5 uM peptide, 20 hours room temperature, first value of cell GSK3β/GSK3α, read-out: GSK3β (nM), IC50

Chain of GSK3β (P49841 whole entry, species assumed): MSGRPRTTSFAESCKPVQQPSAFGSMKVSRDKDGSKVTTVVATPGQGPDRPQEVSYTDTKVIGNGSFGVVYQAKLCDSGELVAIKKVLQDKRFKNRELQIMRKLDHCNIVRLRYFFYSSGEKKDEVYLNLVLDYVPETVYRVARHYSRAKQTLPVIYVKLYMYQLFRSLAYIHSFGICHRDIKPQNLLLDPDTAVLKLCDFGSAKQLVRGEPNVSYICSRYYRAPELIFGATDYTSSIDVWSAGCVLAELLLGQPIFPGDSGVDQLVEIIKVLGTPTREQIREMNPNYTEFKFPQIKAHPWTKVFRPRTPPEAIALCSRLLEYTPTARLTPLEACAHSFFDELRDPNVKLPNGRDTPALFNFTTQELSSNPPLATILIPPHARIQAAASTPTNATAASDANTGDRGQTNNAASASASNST
Chain of GSK3α (P49840 whole entry, species assumed): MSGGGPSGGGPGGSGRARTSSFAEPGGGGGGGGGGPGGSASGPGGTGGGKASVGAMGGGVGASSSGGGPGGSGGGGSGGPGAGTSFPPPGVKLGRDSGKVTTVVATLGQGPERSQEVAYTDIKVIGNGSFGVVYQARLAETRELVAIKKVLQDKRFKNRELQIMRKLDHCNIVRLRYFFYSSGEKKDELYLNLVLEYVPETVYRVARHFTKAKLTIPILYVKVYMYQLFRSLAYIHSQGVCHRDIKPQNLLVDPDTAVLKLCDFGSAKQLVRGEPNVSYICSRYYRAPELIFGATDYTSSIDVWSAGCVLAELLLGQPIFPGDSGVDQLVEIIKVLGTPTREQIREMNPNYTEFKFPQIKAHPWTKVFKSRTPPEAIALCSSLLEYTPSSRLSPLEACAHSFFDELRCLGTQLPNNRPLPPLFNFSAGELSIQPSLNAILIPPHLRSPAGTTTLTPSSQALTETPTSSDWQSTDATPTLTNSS

CC(C)C(C)Nc1nccc(C(=O)Nc2cnccc2OCC(F)(F)F)n1 (stereo not drawn) [Example 125, 2-((3-Methylbutan-2-yl)amino)-N-(4-(2,2,2-trifluoroethoxy)pyridin-3-yl)pyrimidine-4-carboxamide]
IC50 [1, 4]: 1.1 nM | IC50 [2]: 0.84 nM | IC50 [3]: 55 nM

CC(Nc1nccc(C(=O)Nc2cnccc2OCC(F)(F)F)n1)C(C)(C)C (stereo not drawn) [Example 126, 2-((3,3-Dimethylbutan-2-yl)amino)-N-(4-(2,2,2-trifluoroethoxy)pyridin-3-yl)pyrimidine-4-carboxamide]
IC50 [1, 4]: 1.1 nM | IC50 [2]: 0.41 nM | IC50 [3]: 110 nM

O=C(Nc1cnccc1OCC(F)(F)F)c1ccnc(NCc2ccccc2)n1 [Example 128, 2-(Benzylamino)-N-(4-(2,2,2-trifluoroethoxy)pyridin-3-yl)pyrimidine-4-carboxamide]
IC50 [1, 4]: 1.2 nM | IC50 [2]: 1.3 nM | IC50 [3]: 210 nM

O=C(Nc1cnccc1OCC(F)(F)F)c1ccnc(NCc2ccccc2F)n1 [Example 129, 2-((2-Fluorobenzyl)amino)-N-(4-(2,2,2-trifluoroethoxy)pyridin-3-yl)pyrimidine-4-carboxamide]
IC50 [1, 4]: 1.5 nM | IC50 [2]: 1.8 nM | IC50 [3]: 180 nM

O=C(Nc1cnccc1OCC(F)(F)F)c1ccnc(NC2CC2)n1 [Example 130, 2-(Cyclopropylamino)-N-(4-(2,2,2-trifluoroethoxy)pyridin-3-yl)pyrimidine-4-carboxamide]
IC50 [1, 4]: 1.6 nM | IC50 [2]: 1.5 nM | IC50 [3]: 46 nM

O=C(Nc1cnccc1OCC(F)(F)F)c1ccnc(NCc2ccc(F)cc2)n1 [Example 131, 2-((4-Fluorobenzyl)amino)-N-(4-(2,2,2-trifluoroethoxy)pyridin-3-yl)pyrimidine-4-carboxamide]
IC50 [1, 4]: 1.8 nM | IC50 [2]: 2.2 nM | IC50 [3]: 160 nM

O=C(Nc1cnccc1OCC(F)(F)F)c1ccnc(NCc2ccc3c(c2)OCO3)n1 [Example 132, 2-((Benzo[d][1,3]dioxol-5-ylmethyl)amino)-N-(4-(2,2,2-trifluoroethoxy)pyridin-3-yl)pyrimidine-4-carboxamide]
IC50 [1]: 1.9 nM | IC50 [2]: 2.2 nM | IC50 [3]: 220 nM

CC1CC(Nc2nccc(C(=O)Nc3cnccc3OCC(F)(F)F)n2)CC(C)O1 (stereo not drawn) [Example 133, 2-((2,6-Dimethyltetrahydro-2H-pyran-4-yl)amino)-N-(4-(2,2,2-trifluoroethoxy)pyridin-3-yl)pyrimidine-4-carboxamide]
IC50 [1, 4]: 1.9 nM | IC50 [2]: 38 nM | IC50 [3]: 380 nM

O=C(Nc1cnccc1OCC(F)(F)F)c1ccnc(NCc2ccc(C(F)(F)F)cc2)n1 [Example 134, N-(4-(2,2,2-Trifluoroethoxy)pyridin-3-yl)-2-((4-(trifluoromethyl)benzyl)amino)pyrimidine-4-carboxamide]
IC50 [1, 4]: 2.8 nM | IC50 [2]: 5.4 nM | IC50 [3]: 310 nM

CNc1nccc(C(=O)Nc2cnccc2OCC(F)(F)F)n1 [Example 135, 2-(Methylamino)-N-(4-(2,2,2-trifluoroethoxy)pyridin-3-yl)pyrimidine-4-carboxamide]
IC50 [1, 4]: 3.6 nM | IC50 [2]: 14 nM | IC50 [3]: 400 nM

O=C(Nc1cnccc1OCC(F)(F)F)c1ccnc(NCc2ccccc2C(F)(F)F)n1 [Example 137, N-(4-(2,2,2-Trifluoroethoxy)pyridin-3-yl)-2-((2-(trifluoromethyl)benzyl)amino)pyrimidine-4-carboxamide]
IC50 [1, 4]: 4.1 nM | IC50 [2]: 2.3 nM | IC50 [3]: 350 nM

CC(Nc1nccc(C(=O)Nc2cnccc2OCC(F)(F)F)n1)c1ccccc1 (stereo not drawn) [Example 138, 2-((1-Phenylethyl)amino)-N-(4-(2,2,2-trifluoroethoxy)pyridin-3-yl)pyrimidine-4-carboxamide]
IC50 [1, 4]: 6.1 nM | IC50 [2]: 3.2 nM | IC50 [3]: 430 nM

O=C(Nc1cnccc1OCC(F)(F)F)c1ccnc(NCc2cccc(C(F)(F)F)c2)n1 [Example 139, N-(4-(2,2,2-Trifluoroethoxy)pyridin-3-yl)-2-((3-(trifluoromethyl)benzyl)amino)pyrimidine-4-carboxamide]
IC50 [1, 4]: 6.3 nM | IC50 [2]: 5.4 nM | IC50 [3]: 570 nM

O=C(Nc1cnccc1OCC(F)(F)F)c1ccnc(NCc2cccc(F)c2)n1 [Example 140, 2-((3-Fluorobenzyl)amino)-N-(4-(2,2,2-trifluoroethoxy)pyridin-3-yl)pyrimidine-4-carboxamide]
IC50 [1, 4]: 1.3 nM | IC50 [2]: 1.6 nM | IC50 [3]: 280 nM

O=C(Nc1cnccc1OCC(F)(F)F)c1ccnc(NCC(F)(F)F)n1 [Example 141, N-(4-(2,2,2-Trifluoroethoxy)pyridin-3-yl)-2-((2,2,2-trifluoroethyl)amino)pyrimidine-4-carboxamide]
IC50 [1, 4]: 7.8 nM | IC50 [2]: 8 nM | IC50 [3]: 300 nM

CN1CCC(Nc2nccc(C(=O)Nc3cnccc3OCC(F)(F)F)n2)CC1 [Example 142, 2-((1-Methylpiperidin-4-yl)amino)-N-(4-(2,2,2-trifluoroethoxy)pyridin-3-yl)pyrimidine-4-carboxamide]
IC50 [1]: 14 nM | IC50 [2]: 12 nM | IC50 [3]: 1000 nM

CC(Nc1nccc(C(=O)Nc2cnccc2OCC(F)(F)F)n1)C12CC3CC(CC(C3)C1)C2 (stereo not drawn) [Example 143, 2-((1-(Adamantan-1-yl)ethyl)amino)-N-(4-(2,2,2-trifluoroethoxy)pyridin-3-yl)pyrimidine-4-carboxamide]
IC50 [1, 4]: 33 nM | IC50 [2]: 73 nM | IC50 [3]: 4900 nM

O=C(Nc1cnccc1OCC(F)(F)F)c1ccnc(NCc2cc(C(F)(F)F)cc(C(F)(F)F)c2)n1 [Example 144, 2-((3,5-Bis(trifluoromethyl)benzyl)amino)-N-(4-(2,2,2-trifluoroethoxy)pyridin-3-yl)pyrimidine-4-carboxamide]
IC50 [1, 4]: 210 nM | IC50 [2]: 200 nM | IC50 [3]: 10000 nM

CN1C(C)(C)CC(Nc2nccc(C(=O)Nc3cnccc3OCC(F)(F)F)n2)CC1(C)C [Example 145, 2-((1,2,2,6,6-Pentamethylpiperidin-4-yl)amino)-N-(4-(2,2,2-trifluoroethoxy)pyridin-3-yl)pyrimidine-4-carboxamide]
IC50 [1, 4]: 250 nM | IC50 [2]: 460 nM | IC50 [3]: 10000 nM

O=C(Nc1cnccc1-c1ccccc1)c1ccnc(NCC2CC2)n1 [Example 147, 2-((Cyclopropylmethyl)amino)-N-(4-phenylpyridin-3-yl)pyrimidine-4-carboxamide]
IC50 [1, 4]: 0.14 nM | IC50 [2]: 0.14 nM | IC50 [3]: 20 nM

O=C(Nc1cnccc1-c1ccc(F)cc1)c1ccnc(NC2CCCC2)n1 [Example 148, 2-(Cyclopentylamino)-N-(4-(4-fluorophenyl)pyridin-3-yl)pyrimidine-4-carboxamide]
IC50 [1, 4]: 0.35 nM | IC50 [2]: 0.3 nM | IC50 [3]: 51 nM

O=C(Nc1cnccc1-c1ccc(F)cc1F)c1ccnc(Nc2ccc3ccccc3c2)n1 [Example 149, N-(4-(2,4-Difluorophenyl)pyridin-3-yl)-2-(naphthalen-2-ylamino)pyrimidine-4-carboxamide]
IC50 [1, 4]: 0.65 nM | IC50 [2]: 0.36 nM | IC50 [3]: 110 nM

O=C(Nc1cnccc1-c1ccc(F)cc1)c1ccnc(NC2CCCCC2)n1 [Example 150, 2-(Cyclohexylamino)-N-(4-(4-fluorophenyl)pyridin-3-yl)pyrimidine-4-carboxamide]
IC50 [1, 4]: 0.66 nM | IC50 [2]: 0.57 nM | IC50 [3]: 120 nM

O=C(Nc1cnccc1-c1ccc(F)cc1F)c1ccnc(Nc2ccccc2)n1 [Example 151, N-(4-(2,4-Difluorophenyl)pyridin-3-yl)-2-(phenylamino)pyrimidine-4-carboxamide]
IC50 [1, 4]: 0.67 nM | IC50 [2]: 0.32 nM | IC50 [3]: 44 nM

O=C(Nc1cnccc1-c1ccc(F)cc1)c1ccnc(NC2CC2)n1 [Example 153, 2-(Cyclopropylamino)-N-(4-(4-fluorophenyl)pyridin-3-yl)pyrimidine-4-carboxamide]
IC50 [1, 4]: 0.82 nM | IC50 [2]: 0.65 nM | IC50 [3]: 55 nM

O=C(Nc1cnccc1-c1ccccc1F)c1ccnc(Nc2ccc3ccccc3c2)n1 [Example 154, N-(4-(2-Fluorophenyl)pyridin-3-yl)-2-(naphthalen-2-ylamino)pyrimidine-4-carboxamide]
IC50 [1, 4]: 1.4 nM | IC50 [2]: 0.7 nM | IC50 [3]: 100 nM

O=C(Nc1cnccc1-c1ccc(F)cc1F)c1ccnc(Nc2ccc(F)cc2F)n1 [Example 155]
IC50 [1, 4]: 1.5 nM | IC50 [2]: 0.97 nM | IC50 [3]: 10000 nM

O=C(Nc1cnccc1-c1ccccc1)c1ccnc(NC2CCCCC2)n1 [Example 156, 2-(Cyclohexylamino)-N-(4-phenylpyridin-3-yl)pyrimidine-4-carboxamide]
IC50 [1]: 2.1 nM | IC50 [2]: 1.3 nM | IC50 [3]: 350 nM

CC(Nc1nccc(C(=O)Nc2cnccc2-c2ccc(F)cc2)n1)C(C)(C)C (stereo not drawn) [Example 157, 2-((3,3-Dimethylbutan-2-yl)amino)-N-(4-(4-fluorophenyl)pyridin-3-yl)pyrimidine-4-carboxamide]
IC50 [1, 4]: 2.2 nM | IC50 [2]: 0.72 nM | IC50 [3]: 410 nM

CNc1nccc(C(=O)Nc2cnccc2-c2ccc(F)cc2F)n1 [Example 158, N-(4-(2,4-Difluorophenyl)pyridin-3-yl)-2-(methylamino)pyrimidine-4-carboxamide]
IC50 [1, 4]: 2.4 nM | IC50 [2]: 1.9 nM | IC50 [3]: 96 nM

O=C(Nc1cnccc1-c1ccccc1)c1ccnc(Nc2cnn(-c3cc(F)ccc3F)c2)n1 [Example 159, 2-((1-(2,5-Difluorophenyl)-1H-pyrazol-4-yl)amino)-N-(4-phenylpyridin-3-yl)pyrimidine-4-carboxamide]
IC50 [1, 4]: 7.2 nM | IC50 [2]: 1.9 nM | IC50 [3]: 390 nM

CN1CCC(Nc2nccc(C(=O)Nc3cnccc3-c3ccccc3F)n2)CC1 [Example 162, N-(4-(2-Fluorophenyl)pyridin-3-yl)-2-((1-methylpiperidin-4-yl)amino)pyrimidine-4-carboxamide]
IC50 [1, 4]: 32 nM | IC50 [2]: 39 nM | IC50 [3]: 2200 nM

O=C(Nc1cnccc1-c1ccccc1)c1ccnc(Nc2ccccn2)n1 [Example 163, N-(4-Phenylpyridin-3-yl)-2-(pyridin-2-ylamino)pyrimidine-4-carboxamide]
IC50 [1, 4]: 310 nM | IC50 [2]: 210 nM | IC50 [3]: 10000 nM
